The values below come from PubChem BioAssay AID180 (DTP/NCI, 2004).

The test system of the assay is BDF1 mice, Adenocarcinoma 755 s.c., tumor weight T/C. Briefly: NCI In Vivo Anticancer Drug Screen. Data for tumor model Adenocarcinoma 755 (subcutaneous) in B6D2F1 (BDF1) mice. To be noted: endpoint: mean tumor weight, higher = larger tumour. Summed up: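 Compound activity was tested in mice carrying transplanted tumors. Survival or tumor size was measured, and each value is the treated-group measurement divided by that of the vehicle-treated control group (T/C).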

[1] abbreviates: dose: 25.0 mg/kg/injection, schedule: Q01DX011 (ip), vehicle: carboxymethylcellulose (CMC).
The mark [2] stands for this setting: dose: 75.0 mg/kg/injection, schedule: Q01DX011 (ip), vehicle: methylcellulose (MC).

Values joined by “and” are separate entries in the source; they are usually repeats but may differ in a detail not shown here. Identical values can stand only once. Starred links: 1 amine or outer side, 2 acyl side, 3 side chain; linkers in the order of their positions; H or OH if unused. Positions of bridges follow the written chain, without caps; N, C: chain ends. Non-standard residues stand in square brackets, D forms with d. Residues, ends and D or L forms follow the SMILES beside them. Chains are numbered I, II in the order given. Actinocin(9to1) = Cc1c2oc3c(C)ccc(C(=O)[*:1])c3nc-2c(C(=O)[*:2])c(N)c1=O; aThr = C[C@H](O)[C@H](N)C(=O)O; NMeV = CN[C@H](C(=O)O)C(C)C; Sar = CNCC(=O)O

Usually T/C stands for the result in the treated group divided by that in the control group, in per cent.

As to `NC(N)=NC(CC(=O)O)c1ccccc1` (configuration not stated), the T/C is, setting by setting: (dose: 15.0 mg/kg/injection, schedule: Q01DX011 (ip), vehicle: saline) 87 % of control; (dose: 31.0 mg/kg/injection, schedule: Q01DX011 (ip), vehicle: saline) 99 % of control; (dose: 62.0 mg/kg/injection, schedule: Q01DX011 (ip), vehicle: saline) 87 % of control; (dose: 125.0 mg/kg/injection, schedule: Q01DX011 (ip), vehicle: saline) 107 % of control; (dose: 250.0 mg/kg/injection, schedule: Q01DX011 (ip), vehicle: saline) 91 % of control.

Consider `C[C@]12CC[C@H](O)C[C@H]1CC[C@@H]1[C@@H]2CC[C@]2(C)[C@@H](C3=CC(=O)OC3)CC[C@]12O`, for which the T/C reads like this: (dose: 5.0 mg/kg/injection, schedule: Q01DX011 (ip), vehicle: carboxymethylcellulose (CMC)) 72 % of control; (dose: 10.0 mg/kg/injection, schedule: Q01DX011 (ip), vehicle: carboxymethylcellulose (CMC)) 67 % of control; under setting [1], 49 % of control.

Consider `OC1CC([CH2][Hg][Cl])OC([CH2][Hg][Cl])C1` (configuration not stated), for which the T/C by setting is: (dose: 6.0 mg/kg/injection, schedule: Q01DX011 (ip), vehicle: carboxymethylcellulose (CMC)) 95 % of control; (dose: 12.0 mg/kg/injection, schedule: Q01DX011 (ip), vehicle: carboxymethylcellulose (CMC)) 109 % of control; under setting [1], 28 % of control and 36 % of control; (dose: 50.0 mg/kg/injection, schedule: Q01DX011 (ip), vehicle: carboxymethylcellulose (CMC)) 92 % of control.

As for `CC1CN1P(=O)(N1CCCC1)N1CC1C` (configuration not stated), the T/C was 73 % of control (dose: 6.3 mg/kg/injection, schedule: Q01DX011 (ip), vehicle: saline); 58 % of control (dose: 12.5 mg/kg/injection, schedule: Q01DX011 (ip), vehicle: saline); 19 % of control and 20 % of control (dose: 25.0 mg/kg/injection, schedule: Q01DX011 (ip), vehicle: saline); 2 % of control and 3 % of control (dose: 50.0 mg/kg/injection, schedule: Q01DX011 (ip), vehicle: saline).

In the case of `Nc1nc(SCc2ccccc2Cl)c2ncn(C3CCCCC3)c2n1`, the T/C is 180 % of control (dose: 25.0 mg/kg/injection, schedule: Q01DX011 (ip), vehicle: methylcellulose (MC)) and 166 % of control under setting [2].

As to `Cc1c2oc3c(C)ccc(C(=O)N[C@@H]4C(=O)N[C@H](C(C)C)C(=O)N5CCC[C@H]5C(=O)N(C)CC(=O)N(C)[C@@H](C(C)C)C(=O)O[C@H]4C)c3nc-2c(C(=O)N[C@@H]2C(=O)N[C@H](C(C)C)C(=O)N3CCC[C@H]3C(=O)N(C)CC(=O)N(C)[C@@H](C(C)C)C(=O)O[C@H]2C)c(N)c1=O` (I: [aThr][dV]P[Sar][NMeV] / II: [aThr][dV]P[Sar][NMeV]; ester I:1-I:C, II:1-II:C; linker I:N-II:N via Actinocin(9to1)), the T/C is 2 % of control (dose: 0.02 mg/kg/injection, schedule: Q01DX011 (ip), vehicle: saline); 9 % of control (dose: 0.03 mg/kg/injection, schedule: Q01DX011 (ip), vehicle: carboxymethylcellulose (CMC)); 105 % of control (dose: 0.04 mg/kg/injection, schedule: Q01DX011 (ip), vehicle: carboxymethylcellulose (CMC)); 39 % of control (dose: 0.08 mg/kg/injection, schedule: Q01DX011 (ip), vehicle: carboxymethylcellulose (CMC)); 101 % of control (dose: 12.0 micrograms/kg/injection, schedule: Q01DX011 (ip), vehicle: carboxymethylcellulose (CMC)); 82 % of control (dose: 15.0 micrograms/kg/injection, schedule: Q01DX011 (ip), vehicle: carboxymethylcellulose (CMC)). Moreover, the T/C runs as follows: (dose: 24.0 micrograms/kg/injection, schedule: Q01DX011 (ip), vehicle: carboxymethylcellulose (CMC)) 26 % of control and 43 % of control; (dose: 40.0 micrograms/kg/injection, schedule: Q01DX011 (ip), vehicle: carboxymethylcellulose (CMC)) 4 % of control and 13 % of control; (dose: 48.0 micrograms/kg/injection, schedule: Q01DX011 (ip), vehicle: carboxymethylcellulose (CMC)) 10 % of control and 11 % of control; (dose: 53.0 micrograms/kg/injection, schedule: Q01DX011 (ip), vehicle: carboxymethylcellulose (CMC)) 3 % of control and 4 % of control; (dose: 95.0 micrograms/kg/injection, schedule: Q01DX011 (ip), vehicle: carboxymethylcellulose (CMC)) 2 % of control.

With `CCCCCCCCCCCC(=O)N(CC)CC`, the T/C is, setting by setting: (dose: 15.6 mg/kg/injection, schedule: Q01DX011 (ip), vehicle: other) 92 % of control; (dose: 31.2 mg/kg/injection, schedule: Q01DX011 (ip), vehicle: other) 82 % of control; (dose: 62.5 mg/kg/injection, schedule: Q01DX011 (ip), vehicle: other) 84 % of control.

Turning to `O=c1[nH]cnc2c1ncn2CCO`, the T/C is, setting by setting: (dose: 43.75 mg/kg/injection, schedule: Q01DX011 (ip), vehicle: methylcellulose (MC)) 40 % of control; (dose: 87.5 mg/kg/injection, schedule: Q01DX011 (ip), vehicle: methylcellulose (MC)) 100 % of control; (dose: 175.0 mg/kg/injection, schedule: Q01DX011 (ip), vehicle: methylcellulose (MC)) 123 % of control; (dose: 350.0 mg/kg/injection, schedule: Q01DX011 (ip), vehicle: methylcellulose (MC)) 99 % of control.

As for `ClCCn1cnc2c(SCc3ccccc3Cl)ncnc21`, the T/C is 91 % of control (dose: 0.5 mg/kg/injection, schedule: Q01DX011 (ip), vehicle: other); 74 % of control (dose: 0.5 mg/kg/injection, schedule: Q01DX011 (oral), vehicle: other); 84 % of control (dose: 1.0 mg/kg/injection, schedule: Q01DX011 (ip), vehicle: other); 42 % of control and 47 % of control (dose: 2.0 mg/kg/injection, schedule: Q01DX011 (ip), vehicle: other); 109 % of control (dose: 2.0 mg/kg/injection, schedule: Q01DX011 (oral), vehicle: other); 75 % of control and 81 % of control (dose: 4.0 mg/kg/injection, schedule: Q01DX011 (oral), vehicle: other). For the same compound, the T/C was 3 % of control (dose: 8.0 mg/kg/injection, schedule: Q01DX011 (ip), vehicle: other); 25 % of control and 32 % of control (dose: 8.0 mg/kg/injection, schedule: Q01DX011 (oral), vehicle: other); 5 % of control and 13 % of control (dose: 15.0 mg/kg/injection, schedule: Q01DX011 (oral), vehicle: other); 1 % of control (dose: 30.0 mg/kg/injection, schedule: Q01DX011 (oral), vehicle: other); 3 % of control (dose: 100.0 mg/kg/injection, schedule: Q01DX011 (ip), vehicle: carboxymethylcellulose (CMC)).

As to `CC(c1ccccc1)c1nc2c([nH]1)c(=O)n(C)c(=O)n2C` (configuration not stated), the T/C (dose: 40.0 mg/kg/injection, schedule: Q01DX011 (ip), vehicle: methylcellulose (MC)) is 99 % of control; the T/C under setting [2] is 86 % of control; the T/C (dose: 150.0 mg/kg/injection, schedule: Q01DX011 (ip), vehicle: methylcellulose (MC)) was 72 % of control.

In the case of `CCC(C)Sc1nc(N)nc2c1ncn2C1OC(CO)C(O)C1O` (configuration not stated), the T/C is, setting by setting: (dose: 200.0 mg/kg/injection, schedule: Q01DX011 (ip), vehicle: carboxymethylcellulose (CMC)) 2 % of control; (dose: 300.0 mg/kg/injection, schedule: Q01DX011 (ip), vehicle: carboxymethylcellulose (CMC)) 2 % of control.

In the case of `Nc1nc(=S)c2ncn(C3CCCO3)c2[nH]1` (configuration not stated), the T/C is, setting by setting: (dose: 0.7 mg/kg/injection, schedule: Q01DX011 (ip), vehicle: carboxymethylcellulose (CMC)) 71 % of control; (dose: 1.5 mg/kg/injection, schedule: Q01DX011 (ip), vehicle: carboxymethylcellulose (CMC)) 60 % of control; (dose: 3.0 mg/kg/injection, schedule: Q01DX011 (ip), vehicle: carboxymethylcellulose (CMC)) 38 % of control; (dose: 7.5 mg/kg/injection, schedule: Q01DX011 (ip), vehicle: carboxymethylcellulose (CMC)) 2 % of control; (dose: 15.0 mg/kg/injection, schedule: Q01DX011 (ip), vehicle: carboxymethylcellulose (CMC)) 2 % of control.
